Where two headings read alike, the source gives them in different places.
What was measured:
[1] = system: models of pneumonia in rats induced by mixed bacteria solution of Staphylococcus aureus, Streptococcus pneumoniae, and Escherichia coli; assay: Lung function test in rat pneumonia model induced by mixed bacteria; format: in vivo, SD rats
Excerpt: (§1) Bacterial pneumonia is the most common pneumonia, is also one of the most common infectious diseases, and is caused by bacterial infection. Main pathogenic bacteria of the bacterial pneumonia include Streptococcus pneumoniae, Staphylococcus aureus, Escherichia coli, and the like, which pose a great threat to the health of children and the elderly. In this experiment, a mixed bacteria solution of Staphylococcus aureus, Streptococcus pneumoniae, and Escherichia coli was instilled into the trachea to induce models of pneumonia in rats. Pharmacodynamic effects of a peptide on pneumonia were evaluated by observing effects of the peptide inhaled through the nose and mouth on the models of pneumonia caused by mixed bacteria infection.
(§2) 80 SD rats, SPF grade, half male and half female, were selected and randomly divided into 8 groups according to sex and body weight, including 6 rats in each of a blank control group and a model evaluation group, 8 rats in a blank administration group, and 12 rats in each of a model control group, an erythromycin group, a budesonide group, a low-dose polypeptide treatment group, and a high-dose polypeptide treatment group.
(§3) Animals in the blank administration group were not modeled, and inhaled a high-concentration polypeptide aerosol (0.48 mg/L) through nose and mouth every day. Animals in the blank control group were instilled with a 0.5 mL 0.9% sodium chloride injection through trachea. After the remaining groups were slightly anesthetized with ether, the model control group, the erythromycin group, the budesonide group, the low-dose polypeptide treatment group, and the high-dose polypeptide treatment group were instilled with a 1×10^8 CFU/mL mixed bacteria solution of Staphylococcus aureus, Streptococcus pneumoniae, and Escherichia coli through trachea, 0.5 mL/rat, respectively, and the blank control group was instilled with a 0.9% sodium chloride injection of a same volume.
(§4) A specific modeling method was as follows: a rat was anesthetized by ether inhalation and lied on an anatomical plate at an angle of 30-45°, trachea of the rat was exposed under an otoscope, a long puncture needle was connected to a 1 mL syringe and inserted into the trachea, each rat was injected with 0.5 mL of mixed bacteria, the puncture needle was pulled out after the injection, the rat was still kept at the original tilt position for about 10 min, and the bacteria solution flowed into bronchus and alveoli due to gravity to cause infection, so as to induce a rat pneumonia model.
(§5) Each group was administrated for the first time at 2 h after modeling. After the experiment begun, 7.16 mg/mL and 71.6 mg/mL peptide solutions were atomized into aerosol particles with target concentrations of 0.07 and 0.48 mg/L every day, and the animals in the low-dose peptide treatment group and the high-dose peptide treatment group (0.54 mg/kg and 3.7 mg/kg, corresponding to drug concentrations 0.07 and 0.48 mg/L respectively) inhaled the aerosol particles with corresponding concentrations through mouth and nose respectively for 7 consecutive days, 10 min/time, 3 times a day; the blank administration group (cumulative dose 22.2 mg/kg, corresponding to a drug concentration 0.48 mg/L) inhaled 0.48 mg/L peptide aerosol particles through mouth and nose every day for 7 consecutive days, 20 min/time, 3 times a day; the blank control group and the model control group inhaled a 0.9% sodium chloride solution for the same time according to the same method; the erythromycin group and the budesonide group were administrated with a 5 mg/mL erythromycin solution and a 0.05 mg/mL budesonide suspension respectively for the same time according to the same method; and body weight of each group was tested every day.

[2] = system: models of pneumonia in rats induced by mixed bacteria solution of Staphylococcus aureus, Streptococcus pneumoniae, and Escherichia coli; assay: Arterial blood gas in rat pneumonia model induced by mixed bacteria; format: in vivo, SD rats; conditions: for PaCO2: partial pressure of carbon dioxide / PaO2: partial pressure of oxygen / arterial blood pH: pneumonia model rats
Excerpt: as §1, §2, §3, §4
as §5, with “day. […]” for “day.”

[3] = system: Streptococcus pneumoniae; assay: animal or person; format: in vivo; conditions: for Number of streptococcus pneumoniae: lung tissue of pneumonia model rats; for inhibition at 50 µg/mL / inhibition at 5000 µg/mL, 18 mg/kg: Streptococcus pneumoniae, in Rattus norvegicus, inhaled or nasal, vs model control group
Protocol: as §3, §4, §5
(§6) Except the blank administration group, half animals of the remaining groups were randomly selected for lung function test, gross anatomy examination, and pathological test on D4 day, and lungs of 3 animals in each group were selected for bacteria culture and counting; and on D8 day, the remaining animals were subjected to lung function test, gross anatomy examination, and pathological test, and lungs of 3 animals in each group were selected for bacteria culture and counting (the blank control group and the blank administration group were not examined).
(§7) Experimental steps of bacteria culture: except the blank administration group, six animals were randomly selected from each of the remaining groups (three animals were randomly selected from the first and last anatomies), left middle lobe lung tissues were taken, washed with 0.9% sodium chloride injection, added with double weight of 0.9% sodium chloride injection, and ground into homogenate, the homogenate was inoculated into a meat extract agar medium and cultured at 37° C. for 16 to 18 h, bacteria were isolated, and each isolated bacteria suspension was diluted to 10^−1, 10^−2, 10^−3, 10^−4, 10^−5, 10^−6, 10^−7 and 10^−8 according to 10 times gradient, namely, 9 mL normal saline plus 1 mL bacteria suspension was 10^−1, and so on. […]

[4] = system: Escherichia coli; assay: animal or person; format: in vivo; conditions: for Number of escherichia coli: lung tissue of pneumonia model rats; for inhibition at 50 µg/mL / inhibition at 5000 µg/mL, 18 mg/kg: Escherichia coli, in Rattus norvegicus, inhaled or nasal, vs model control group
Protocol: as §3, §4, §5, §6, §7

[5] = system: Staphylococcus aureus; assay: animal or person; format: in vivo; conditions: for Number of staphylococcus aureus: lung tissue of pneumonia model rats; for inhibition at 50 µg/mL / inhibition at 5000 µg/mL, 18 mg/kg: Staphylococcus aureus, in Rattus norvegicus, inhaled or nasal, vs model control group
Protocol: as §3, §4, §5, §6, §7

[6] = system: models of pneumonia in rats induced by mixed bacteria solution of Staphylococcus aureus, Streptococcus pneumoniae, and Escherichia coli; assay: Pathological test of lung tissue (HE) in rat pneumonia model; format: in vivo, SD rats; conditions: erythromycin 5 mg/mL solution (18 mg/kg) inhaled
Excerpt: as §1, §2
Animals in the blank administration group were not modeled, and inhaled a high-concentration polypeptide aerosol (0.48 mg/L) through nose and mouth every day. […]

[7] = D4, budesonide 0.05 mg/mL suspension (0.18 mg/kg) inhaled
[8] = D8, budesonide 0.05 mg/mL suspension (0.18 mg/kg) inhaled
[9] = D4, erythromycin 5 mg/mL solution (18 mg/kg) inhaled
[10] = D8, erythromycin 5 mg/mL solution (18 mg/kg) inhaled

Question: What does the source list for `CCCC1O[C@@H]2C[C@H]3[C@@H]4CCC5=CC(=O)C=C[C@]5(C)[C@H]4[C@@H](O)C[C@]3(C)[C@]2(C(=O)CO)O1` (some centres unmarked) [Budesonide, budesonide]?
Answer: FEV200 (forced expiratory volume) [1, 7]: 2.72 ± 0.72 mL; FEV200/FVC [1, 7]: 85.78 ± 8.00%; FVC: forced vital capacity [1, 7]: 3.13 ± 0.59 mL; VT: tidal volume [1, 7]: 1.86 ± 0.69 mL; f: respiratory rate [1, 7]: 130 ± 39 time/min; FEV200 (forced expiratory volume) [1, 8]: 3.43 ± 0.69 mL; FEV200/FVC [1, 8]: 89.77 ± 4.58%; FVC: forced vital capacity [1, 8]: 3.80 ± 0.65 mL; VT: tidal volume [1, 8]: 1.63 ± 0.27 mL; f: respiratory rate [1, 8]: 126 ± 11 time/min; PaCO2: partial pressure of carbon dioxide [2, 7]: 52.87 ± 13.34 mmHg; PaO2: partial pressure of oxygen [2, 7]: 75.73 ± 30.92 mmHg; arterial blood pH [2, 7]: 7.31 ± 0.07; PaCO2: partial pressure of carbon dioxide [2, 8]: 34.35 ± 8.17 mmHg; PaO2: partial pressure of oxygen [2, 8]: 86.67 ± 24.78 mmHg; arterial blood pH [2, 8]: 7.45 ± 0.06; Number of streptococcus pneumoniae [3, 7]: 1810 ± 957 CFU/mL; Number of streptococcus pneumoniae [3, 8]: 433 ± 276 CFU/mL; inhibition at 50 µg/mL ([3]; read-out: Inhibition rate of streptococcus pneumoniae, D4, budesonide 0.05 mg/mL suspension (0.18 mg/kg) inhaled): 61.7%; inhibition at 50 µg/mL ([3]; read-out: Inhibition rate of streptococcus pneumoniae, D8, budesonide 0.05 mg/mL suspension (0.18 mg/kg) inhaled): 72.7%; Number of escherichia coli [4, 7]: 3737 ± 1115 CFU/mL; Number of escherichia coli [4, 8]: 890 ± 409 CFU/mL; inhibition at 50 µg/mL ([4]; read-out: Inhibition rate of escherichia coli, D4, budesonide 0.05 mg/mL suspension (0.18 mg/kg) inhaled): -20.6%; inhibition at 50 µg/mL ([4]; read-out: Inhibition rate of escherichia coli, D8, budesonide 0.05 mg/mL suspension (0.18 mg/kg) inhaled): 7.58%; Number of staphylococcus aureus [5, 7]: 2577 ± 655 CFU/mL; Number of staphylococcus aureus [5, 8]: 560 ± 269 CFU/mL; inhibition at 50 µg/mL ([5]; read-out: Inhibition rate of staphylococcus aureus, D4, budesonide 0.05 mg/mL suspension (0.18 mg/kg) inhaled): 48.7%; inhibition at 50 µg/mL ([5]; read-out: Inhibition rate of staphylococcus aureus, D8, budesonide 0.05 mg/mL suspension (0.18 mg/kg) inhaled): 83.4%

Question: For `CC[C@H]1OC(=O)[C@H](C)[C@@H](O[C@H]2C[C@@](C)(OC)[C@@H](O)[C@H](C)O2)[C@H](C)[C@@H](O[C@@H]2O[C@H](C)C[C@H](N(C)C)[C@H]2O)[C@](C)(O)C[C@@H](C)C(=O)[C@H](C)[C@@H](O)[C@]1(C)O` [Erythromycin, erythromycin], which “FEV200 (forced expiratory volume)” value [1, 9] is on record?
Answer: 2.84 ± 0.54 mL

Question: What about the FEV200/FVC [1, 9] of the same molecule?
Answer: 90.65 ± 4.78 %

Question: And the “FVC: forced vital capacity” value [1, 9]?
Answer: 3.12 ± 0.52 mL

Question: And the “VT: tidal volume” value [1, 9]?
Answer: 1.59 ± 0.39 mL

Question: And the “f: respiratory rate” value [1, 9]?
Answer: 132 ± 27 time/min

Question: What about the “FEV200 (forced expiratory volume)” value [1, 10] of the same molecule?
Answer: 3.40 ± 0.12 mL

Question: What about the FEV200/FVC [1, 10] of the same molecule?
Answer: 92.36 ± 2.94 %

Question: What about the “FVC: forced vital capacity” value [1, 10] of the same molecule?
Answer: 3.68 ± 0.20 mL

Question: And the “VT: tidal volume” value [1, 10]?
Answer: 1.67 ± 0.24 mL

Question: What about the “f: respiratory rate” value [1, 10] of the same molecule?
Answer: 130 ± 25 time/min

Question: What about the “PaCO2: partial pressure of carbon dioxide” value [2, 9] of the same molecule?
Answer: 50.38 ± 6.60 mmHg

Question: What about the “PaO2: partial pressure of oxygen” value [2, 9] of the same molecule?
Answer: 69.68 ± 15.16 mmHg

Question: What about the “arterial blood pH” value [2, 9] of the same molecule?
Answer: 7.33 ± 0.05

Question: What about the “PaO2 increase vs model control group” value ([2]; D8, erythromycin group (18 mg/kg), no statistical difference) of the same molecule?
Answer: 37.17%

Question: What about the “PaCO2: partial pressure of carbon dioxide” value [2, 10] of the same molecule?
Answer: 39.37 ± 5.60 mmHg

Question: And the “PaO2: partial pressure of oxygen” value [2, 10]?
Answer: 71.08 ± 14.74 mmHg

Question: And the “arterial blood pH” value [2, 10]?
Answer: 7.42 ± 0.04

Question: What about the “pathological changes of lungs compared with the model control group” value ([6]; D4) of the same molecule?
Answer: significantly alleviated

Question: And the lung tissue lesions ([6]; D8)?
Answer: tended to normal

Question: What about the “Number of streptococcus pneumoniae” value [3, 9] of the same molecule?
Answer: 1223 ± 287 CFU/mL

Question: What about the “Number of streptococcus pneumoniae” value [3, 10] of the same molecule?
Answer: 67 ± 15 CFU/mL

Question: And the inhibition at 5000 µg/mL, 18 mg/kg ([3]; read-out: Inhibition rate of streptococcus pneumoniae, D4, erythromycin 5 mg/mL solution (18 mg/kg) inhaled)?
Answer: 74.1%

Question: What about the inhibition at 5000 µg/mL, 18 mg/kg ([3]; read-out: Inhibition rate of streptococcus pneumoniae, D8, erythromycin 5 mg/mL solution (18 mg/kg) inhaled) of the same molecule?
Answer: 95.8%

Question: What about the “Number of escherichia coli” value [4, 9] of the same molecule?
Answer: 447 ± 146 CFU/mL

Question: What about the “Number of escherichia coli” value [4, 10] of the same molecule?
Answer: 80 ± 2 CFU/mL

Question: What about the inhibition at 5000 µg/mL, 18 mg/kg ([4]; read-out: Inhibition rate of escherichia coli, D4, erythromycin 5 mg/mL solution (18 mg/kg) inhaled) of the same molecule?
Answer: 85.6%

Question: What about the inhibition at 5000 µg/mL, 18 mg/kg ([4]; read-out: Inhibition rate of escherichia coli, D8, erythromycin 5 mg/mL solution (18 mg/kg) inhaled) of the same molecule?
Answer: 91.7%

Question: And the “Number of staphylococcus aureus” value [5, 9]?
Answer: 633 ± 146 CFU/mL

Question: And the “Number of staphylococcus aureus” value [5, 10]?
Answer: 113 ± 31 CFU/mL

Question: What about the inhibition at 5000 µg/mL, 18 mg/kg ([5]; read-out: Inhibition rate of staphylococcus aureus, D4, erythromycin 5 mg/mL solution (18 mg/kg) inhaled) of the same molecule?
Answer: 87.4%

Question: What about the inhibition at 5000 µg/mL, 18 mg/kg ([5]; read-out: Inhibition rate of staphylococcus aureus, D8, erythromycin 5 mg/mL solution (18 mg/kg) inhaled) of the same molecule?
Answer: 96.7%

Reference: patent publication US20230330178A1, “USE OF POLYPEPTIDE IN DRUG FOR PREVENTING AND TREATING PNEUMONIA” (priority 2020, published 2023)
